The nature of this data set: Cytotoxicity in pre-osteoblasts (unknown origin) assessed as cell death upto 5 uM by CCK8 assay. Format: toxicity, cell-based. As to conditions: pre-osteoblast. In general terms: Tetrazolium assays rely on reduction of a dye to a coloured formazan, in cell work by metabolically active cells.

Structures are written as SMILES.

We go through 9 molecules from ChEMBL document CHEMBL5625277, “Systematical mutational analysis of teriparatide on anti-osteoporosis activity by alanine scanning” (Bioorg Med Chem Lett, 2024).

As to `CC[C@H](C)[C@H](NC(=O)[C@H](CCC(=O)O)NC(=O)[C@H](CO)NC(=O)[C@@H](NC(=O)[C@H](CO)NC(C)=O)C(C)C)C(=O)N[C@@H](CCC(N)=O)C(=O)N[C@@H](CC(C)C)C(=O)N[C@@H](CCSC)C(=O)N[C@@H](Cc1cnc[nH]1)C(=O)N[C@@H](CC(N)=O)C(=O)N[C@@H](CC(C)C)C(=O)NCC(=O)N[C@@H](CCCCN)C(=O)N[C@@H](Cc1cnc[nH]1)C(=O)N[C@@H](CC(C)C)C(=O)N[C@@H](CC(N)=O)C(=O)N[C@@H](CO)C(=O)N[C@@H](CCSC)C(=O)N[C@@H](CCC(=O)O)C(=O)N[C@@H](C)C(=O)N[C@H](C(=O)N[C@@H](CCC(=O)O)C(=O)N[C@@H](Cc1c[nH]c2ccccc12)C(=O)N[C@@H](CC(C)C)C(=O)N[C@@H](CCCNC(=N)N)C(=O)N[C@@H](CCCCN)C(=O)N[C@@H](CCCCN)C(=O)N[C@@H](CC(C)C)C(=O)N[C@@H](CCC(N)=O)C(=O)N[C@@H](CC(=O)O)C(=O)N[C@H](C(=O)N[C@@H](Cc1cnc[nH]1)C(=O)N[C@@H](CC(N)=O)C(=O)N[C@@H](Cc1ccccc1)C(N)=O)C(C)C)C(C)C`, the Activity result is “Non-Toxic”.

Regarding `CSCC[C@H](NC(=O)[C@H](CC(C)C)NC(=O)[C@H](CCC(N)=O)NC(=O)[C@H](C)NC(=O)[C@H](CCC(=O)O)NC(=O)[C@H](CO)NC(=O)[C@@H](NC(=O)[C@H](CO)NC(C)=O)C(C)C)C(=O)N[C@@H](Cc1cnc[nH]1)C(=O)N[C@@H](CC(N)=O)C(=O)N[C@@H](CC(C)C)C(=O)NCC(=O)N[C@@H](CCCCN)C(=O)N[C@@H](Cc1cnc[nH]1)C(=O)N[C@@H](CC(C)C)C(=O)N[C@@H](CC(N)=O)C(=O)N[C@@H](CO)C(=O)N[C@@H](CCSC)C(=O)N[C@@H](CCC(=O)O)C(=O)N[C@@H](CCCNC(=N)N)C(=O)N[C@H](C(=O)N[C@@H](CCC(=O)O)C(=O)N[C@@H](Cc1c[nH]c2ccccc12)C(=O)N[C@@H](CC(C)C)C(=O)N[C@@H](CCCNC(=N)N)C(=O)N[C@@H](CCCCN)C(=O)N[C@@H](CCCCN)C(=O)N[C@@H](CC(C)C)C(=O)N[C@@H](CCC(N)=O)C(=O)N[C@@H](CC(=O)O)C(=O)N[C@H](C(=O)N[C@@H](Cc1cnc[nH]1)C(=O)N[C@@H](CC(N)=O)C(=O)N[C@@H](Cc1ccccc1)C(N)=O)C(C)C)C(C)C`, the Activity entry is “Non-Toxic”.

With `CC[C@H](C)[C@H](NC(=O)[C@H](CCC(=O)O)NC(=O)[C@H](CO)NC(=O)[C@@H](NC(=O)[C@H](C)NC(C)=O)C(C)C)C(=O)N[C@@H](CCC(N)=O)C(=O)N[C@@H](CC(C)C)C(=O)N[C@@H](CCSC)C(=O)N[C@@H](Cc1cnc[nH]1)C(=O)N[C@@H](CC(N)=O)C(=O)N[C@@H](CC(C)C)C(=O)NCC(=O)N[C@@H](CCCCN)C(=O)N[C@@H](Cc1cnc[nH]1)C(=O)N[C@@H](CC(C)C)C(=O)N[C@@H](CC(N)=O)C(=O)N[C@@H](CO)C(=O)N[C@@H](CCSC)C(=O)N[C@@H](CCC(=O)O)C(=O)N[C@@H](CCCNC(=N)N)C(=O)N[C@H](C(=O)N[C@@H](CCC(=O)O)C(=O)N[C@@H](Cc1c[nH]c2ccccc12)C(=O)N[C@@H](CC(C)C)C(=O)N[C@@H](CCCNC(=N)N)C(=O)N[C@@H](CCCCN)C(=O)N[C@@H](CCCCN)C(=O)N[C@@H](CC(C)C)C(=O)N[C@@H](CCC(N)=O)C(=O)N[C@@H](CC(=O)O)C(=O)N[C@H](C(=O)N[C@@H](Cc1cnc[nH]1)C(=O)N[C@@H](CC(N)=O)C(=O)N[C@@H](Cc1ccccc1)C(N)=O)C(C)C)C(C)C`, the Activity result is on record as “Non-Toxic”.

`CC[C@H](C)[C@H](NC(=O)[C@H](CCC(=O)O)NC(=O)[C@H](CO)NC(=O)[C@@H](NC(=O)[C@H](CO)NC(C)=O)C(C)C)C(=O)N[C@@H](CCC(N)=O)C(=O)N[C@@H](CC(C)C)C(=O)N[C@@H](CCSC)C(=O)N[C@@H](Cc1cnc[nH]1)C(=O)N[C@@H](CC(N)=O)C(=O)N[C@@H](CC(C)C)C(=O)NCC(=O)N[C@@H](CCCCN)C(=O)N[C@@H](C)C(=O)N[C@@H](CC(C)C)C(=O)N[C@@H](CC(N)=O)C(=O)N[C@@H](CO)C(=O)N[C@@H](CCSC)C(=O)N[C@@H](CCC(=O)O)C(=O)N[C@@H](CCCNC(=N)N)C(=O)N[C@H](C(=O)N[C@@H](CCC(=O)O)C(=O)N[C@@H](Cc1c[nH]c2ccccc12)C(=O)N[C@@H](CC(C)C)C(=O)N[C@@H](CCCNC(=N)N)C(=O)N[C@@H](CCCCN)C(=O)N[C@@H](CCCCN)C(=O)N[C@@H](CC(C)C)C(=O)N[C@@H](CCC(N)=O)C(=O)N[C@@H](CC(=O)O)C(=O)N[C@H](C(=O)N[C@@H](Cc1cnc[nH]1)C(=O)N[C@@H](CC(N)=O)C(=O)N[C@@H](Cc1ccccc1)C(N)=O)C(C)C)C(C)C`: the Activity entry was “Non-Toxic”.

With `CC[C@H](C)[C@H](NC(=O)[C@H](CCC(=O)O)NC(=O)[C@H](CO)NC(=O)[C@@H](NC(=O)[C@H](CO)NC(C)=O)C(C)C)C(=O)N[C@@H](CCC(N)=O)C(=O)N[C@@H](CC(C)C)C(=O)N[C@@H](CCSC)C(=O)N[C@@H](Cc1cnc[nH]1)C(=O)N[C@@H](CC(N)=O)C(=O)N[C@@H](CC(C)C)C(=O)NCC(=O)N[C@@H](CCCCN)C(=O)N[C@@H](Cc1cnc[nH]1)C(=O)N[C@@H](CC(C)C)C(=O)N[C@@H](CC(N)=O)C(=O)N[C@@H](CO)C(=O)N[C@@H](CCSC)C(=O)N[C@@H](CCC(=O)O)C(=O)N[C@@H](CCCNC(=N)N)C(=O)N[C@H](C(=O)N[C@@H](CCC(=O)O)C(=O)N[C@@H](Cc1c[nH]c2ccccc12)C(=O)N[C@@H](CC(C)C)C(=O)N[C@@H](CCCNC(=N)N)C(=O)N[C@@H](CCCCN)C(=O)N[C@@H](CCCCN)C(=O)N[C@@H](CC(C)C)C(=O)N[C@@H](CCC(N)=O)C(=O)N[C@@H](CC(=O)O)C(=O)N[C@H](C(=O)N[C@@H](Cc1cnc[nH]1)C(=O)N[C@@H](C)C(=O)N[C@@H](Cc1ccccc1)C(N)=O)C(C)C)C(C)C`, the Activity entry is recorded as “Non-Toxic”.

Turning to `CC[C@H](C)[C@H](NC(=O)[C@H](CCC(=O)O)NC(=O)[C@H](CO)NC(=O)[C@@H](NC(=O)[C@H](CO)NC(C)=O)C(C)C)C(=O)N[C@@H](CCC(N)=O)C(=O)N[C@@H](CC(C)C)C(=O)N[C@@H](CCSC)C(=O)N[C@@H](Cc1cnc[nH]1)C(=O)N[C@@H](CC(N)=O)C(=O)N[C@@H](CC(C)C)C(=O)NCC(=O)N[C@@H](CCCCN)C(=O)N[C@@H](Cc1cnc[nH]1)C(=O)N[C@@H](CC(C)C)C(=O)N[C@@H](CC(N)=O)C(=O)N[C@@H](CO)C(=O)N[C@@H](CCSC)C(=O)N[C@@H](CCC(=O)O)C(=O)N[C@@H](CCCNC(=N)N)C(=O)N[C@H](C(=O)N[C@@H](CCC(=O)O)C(=O)N[C@@H](Cc1c[nH]c2ccccc12)C(=O)N[C@@H](CC(C)C)C(=O)N[C@@H](C)C(=O)N[C@@H](CCCCN)C(=O)N[C@@H](CCCCN)C(=O)N[C@@H](CC(C)C)C(=O)N[C@@H](CCC(N)=O)C(=O)N[C@@H](CC(=O)O)C(=O)N[C@H](C(=O)N[C@@H](Cc1cnc[nH]1)C(=O)N[C@@H](CC(N)=O)C(=O)N[C@@H](Cc1ccccc1)C(N)=O)C(C)C)C(C)C`, the Activity entry was “Non-Toxic”.

In the case of `CC[C@H](C)[C@H](NC(=O)[C@H](C)NC(=O)[C@H](CO)NC(=O)[C@@H](NC(=O)[C@H](CO)NC(C)=O)C(C)C)C(=O)N[C@@H](CCC(N)=O)C(=O)N[C@@H](CC(C)C)C(=O)N[C@@H](CCSC)C(=O)N[C@@H](Cc1cnc[nH]1)C(=O)N[C@@H](CC(N)=O)C(=O)N[C@@H](CC(C)C)C(=O)NCC(=O)N[C@@H](CCCCN)C(=O)N[C@@H](Cc1cnc[nH]1)C(=O)N[C@@H](CC(C)C)C(=O)N[C@@H](CC(N)=O)C(=O)N[C@@H](CO)C(=O)N[C@@H](CCSC)C(=O)N[C@@H](CCC(=O)O)C(=O)N[C@@H](CCCNC(=N)N)C(=O)N[C@H](C(=O)N[C@@H](CCC(=O)O)C(=O)N[C@@H](Cc1c[nH]c2ccccc12)C(=O)N[C@@H](CC(C)C)C(=O)N[C@@H](CCCNC(=N)N)C(=O)N[C@@H](CCCCN)C(=O)N[C@@H](CCCCN)C(=O)N[C@@H](CC(C)C)C(=O)N[C@@H](CCC(N)=O)C(=O)N[C@@H](CC(=O)O)C(=O)N[C@H](C(=O)N[C@@H](Cc1cnc[nH]1)C(=O)N[C@@H](CC(N)=O)C(=O)N[C@@H](Cc1ccccc1)C(N)=O)C(C)C)C(C)C`, the Activity result is “Non-Toxic”.

As to `CC[C@H](C)[C@H](NC(=O)[C@H](CCC(=O)O)NC(=O)[C@H](CO)NC(=O)[C@@H](NC(=O)[C@H](CO)NC(C)=O)C(C)C)C(=O)N[C@@H](CCC(N)=O)C(=O)N[C@@H](CC(C)C)C(=O)N[C@@H](CCSC)C(=O)N[C@@H](Cc1cnc[nH]1)C(=O)N[C@@H](CC(N)=O)C(=O)N[C@@H](CC(C)C)C(=O)NCC(=O)N[C@@H](CCCCN)C(=O)N[C@@H](Cc1cnc[nH]1)C(=O)N[C@@H](CC(C)C)C(=O)N[C@@H](CC(N)=O)C(=O)N[C@@H](CO)C(=O)N[C@@H](CCSC)C(=O)N[C@@H](CCC(=O)O)C(=O)N[C@@H](CCCNC(=N)N)C(=O)N[C@H](C(=O)N[C@@H](C)C(=O)N[C@@H](Cc1c[nH]c2ccccc12)C(=O)N[C@@H](CC(C)C)C(=O)N[C@@H](CCCNC(=N)N)C(=O)N[C@@H](CCCCN)C(=O)N[C@@H](CCCCN)C(=O)N[C@@H](CC(C)C)C(=O)N[C@@H](CCC(N)=O)C(=O)N[C@@H](CC(=O)O)C(=O)N[C@H](C(=O)N[C@@H](Cc1cnc[nH]1)C(=O)N[C@@H](CC(N)=O)C(=O)N[C@@H](Cc1ccccc1)C(N)=O)C(C)C)C(C)C`, the Activity result is reported as “Non-Toxic”.

Turning to `CC[C@H](C)[C@H](NC(=O)[C@H](CCC(=O)O)NC(=O)[C@H](CO)NC(=O)[C@@H](NC(=O)[C@H](CO)NC(C)=O)C(C)C)C(=O)N[C@@H](CCC(N)=O)C(=O)N[C@@H](CC(C)C)C(=O)N[C@@H](CCSC)C(=O)N[C@@H](Cc1cnc[nH]1)C(=O)N[C@@H](C)C(=O)N[C@@H](CC(C)C)C(=O)NCC(=O)N[C@@H](CCCCN)C(=O)N[C@@H](Cc1cnc[nH]1)C(=O)N[C@@H](CC(C)C)C(=O)N[C@@H](CC(N)=O)C(=O)N[C@@H](CO)C(=O)N[C@@H](CCSC)C(=O)N[C@@H](CCC(=O)O)C(=O)N[C@@H](CCCNC(=N)N)C(=O)N[C@H](C(=O)N[C@@H](CCC(=O)O)C(=O)N[C@@H](Cc1c[nH]c2ccccc12)C(=O)N[C@@H](CC(C)C)C(=O)N[C@@H](CCCNC(=N)N)C(=O)N[C@@H](CCCCN)C(=O)N[C@@H](CCCCN)C(=O)N[C@@H](CC(C)C)C(=O)N[C@@H](CCC(N)=O)C(=O)N[C@@H](CC(=O)O)C(=O)N[C@H](C(=O)N[C@@H](Cc1cnc[nH]1)C(=O)N[C@@H](CC(N)=O)C(=O)N[C@@H](Cc1ccccc1)C(N)=O)C(C)C)C(C)C`, the Activity entry is on record as “Non-Toxic”.
